Measured values as given in patent US20190178896A1, “MARKER FOR THE CLASSIFICATION, DIAGNOSIS AND TREATMENT OF SCOLIOSIS” (Chu Sainte-Justine, priority 2013, published 2019).
Counter-ions that a name gives are not always drawn. Like-named read-outs stand apart in the source and are kept apart here.

What was measured:
Gs and Gq proteins = assay: Gs and Gq siRNA knockdown effect on impedance signature of GiPCR agonists in osteoblasts; assay type: cell-based, human
Procedure: Osteoblasts from control subjects and AIS patients of each functional group were transfected with scramble siRNA, Gs siRNA, or Gq siRNA. Efficiency of siRNA in control and AIS groups was verified with qPCR and Western blot analyses 48 hours after transfection, and response to stimulation with GiPCR agonist of cluster I, cluster II, cluster III and cluster IV was evaluated by challenging cells with 10 μM of (FIG. 14A-14D) LPA, (FIG. 14EA-14H) CB65, (FIG. 14I-14L) Somatostatin and (FIG. 14M-14P) Apelin-17, respectively. […] The impedance represented in y-axis as dziec was measured every 2 sec. Data are representative of impedance signatures generated by CellKey™ system in osteoblasts from 12 individuals tested three times in duplicate for each group.;
All Gi1, Gi2, Gi3, Gs and scrambled siRNA were obtained from Ambion (Ambion USA). The sequences used for gene silencing are shown in supplemental Table 3. Osteoblasts from control subjects and AIS patients were transiently transfected in serum-free medium, using Lipofectamine RNAiMAX reagent (Invitrogen) according to the manufacturer's instructions and functional experiments were performed 48 h post transfection. The gene knockdown was evaluated by quantitative real-time PCR (qPCR).
The possibility that the disparity in the shape of impedance among AIS groups in response to GiPCR activation implicates a component of Gs or Gq proteins-dependent response was then […] examined For this purpose, the small interference RNA (siRNA) approach was used to knockdown Gs or Gq proteins prior to stimulate cells.

[1] = test system: osteoblasts from control and AIS patients; assay: cells
Procedure: The targeted endogenous receptors are shown in parentheses. The impedance represented in y-axis as dziec was measured by the Cellkey™ system every 2 sec. Data are representative of impedance signature in osteoblasts from 12 individuals tested three times in duplicate for each group;
A total of ten compounds were tested and the representative refraction index curves generated by each of these compounds in control and AIS osteoblasts are illustrated in FIGS. 10A-10J).

[2] = test system: PBMCs from patients with IS; assay: Effect of rOPN on cellular response to Gi stimulation (somatostatin) in PBMCs, CDS-based system; assay type: cell-based, human; conditions: 0.5 μg/mL rOPN 18 h, 10 μM somatostatin
Procedure: Cells were serum-starved for 18 h in the presence or absence of 0.5 μg/mL rOPN and then stimulated with 10 μM of somatostatin to initiate Gi-mediated cellular response. Data in the graph were generated from maximum-minimum impedance and correspond to the average of response in duplicate;
3. Functional Assay: Day 1: 1. Place PBMCs aliquot from liquid nitrogen in water bath at 37° C. for a minute or until defrosted. 2. Transfer the cell suspension to a 50 mL tube with a sterile pipette. 3. Add 15 mL of Complete media and spin the cells down at 200×g for 5 minutes at room temperature. 4. Remove the supernatant by aspiration. 5. Gently suspend cell pellet in 1 mL of PHA media. 6. Complete the volume to 20 mL with the same media. 7. Cap the tube loosely to allow air to enter. 8. Leave the tube overnight at 37 ° C. in a CO2 incubator to allow quiescent lymphocytes to transform into rapidly-proliferating lymphoblasts.
Day 2: 1. Take the tube out of the incubator, screw the caps completely and spin the cells down at 200×g for 5 min at room temperature. 2. Remove the supernatant by aspiration. 3. Gently suspend cell pellet in 1 mL of complete media. 4. Complete the volume to 20 mL with the same media. 5. Cap the tube loosely to allow air to enter. 6. Leave the tube overnight at 37° C. in a CO2 incubator to expand cell numbers.
Day 3: 1. Take the tube out of the incubator, screw the caps completely and spin the cells down at 200×g for […] at room temperature. 2. Remove the supernatant by aspiration. 3. Wash cells twice with 10 mL of RPMI-1640 (media developed for growing human normal and neoplastic leukocytes (peripheral blood lymphocytes)) by centrifugation at 200×g for […] at room temperature. 4. Gently re-suspend the cell pellet in 600 μL of RPMI-1640. 5. Measure the cell concentration and viability, using an automated cell counter and viability analyzer. 6. Add appropriate volume of RPMI-1640 to adjust to a cell concentration of 1.5×10^5 cell/20 μL. 7. Treat cells with recombinant OPN (rOPN) or vehicle (PBS). 7.1 Transfer 100 μL of cell suspension to two sterile 1.5 ml eppendorf tubes. […]

[3] = Homo sapiens, Osteoblast, read-out: Control EC50 (nM)
[4] = Homo sapiens, Osteoblast, read-out: FG1 EC50 (nM)
[5] = Homo sapiens, Osteoblast, read-out: FG2 EC50 (nM)
[6] = Homo sapiens, Osteoblast, read-out: FG3 EC50 (nM)

| EC50 [1, 3] [nM] | EC50 [1, 4] [nM] | EC50 [1, 5] [nM] | EC50 [1, 6] [nM] | Molecule | Gs coupling (permissive) of agonist/GiPCR (Gs and Gq proteins; FG1) | further results |
| --- | --- | --- | --- | --- | --- | --- |
|  |  |  |  | CSCC[C@H](NC(=O)[C@@H]1CCCN1C(=O)CNC(=O)[C@H](CCCCN)NC(=O)[C@H](Cc1c[nH]cn1)NC(=O)[C@H](CO)NC(=O)[C@H](CC(C)C)NC(=O)[C@H](CCCNC(=N)N)NC(=O)[C@@H]1CCCN1C(=O)[C@H](CCCNC(=N)N)NC(=O)[C@H](CCC(N)=O)NC(=O)[C@H](CCCNC(=N)N)NC(=O)[C@H](CCCNC(=N)N)NC(=O)[C@H](Cc1ccccc1)NC(=O)[C@@H](N)CCCCN)C(=O)N1CCC[C@H]1C(=O)N[C@@H](Cc1ccccc1)C(=O)O [Apelin-17] | Apelin-17/Gs− | Gs coupling (permissive) of agonist/GiPCR (Gs and Gq proteins; FG2): Apelin-17/Gs−; Gs coupling (permissive) of agonist/GiPCR (Gs and Gq proteins; FG3): Apelin-17/Gs− |
| 22.3 ± 1.7 | 22.3 ± 2.3 | 22.5 ± 1.6 | 22.4 ± 1.5 | c1ccc(N2CCN(CCCOc3ccc4c(c3)OCO4)CC2)cc1 [BP554, 1-[3-(3,4-Methylenedioxyphenoxy)propyl]-4-phenyl-piperazine maleate] |  |  |
| 33.4 ± 8.4 | 42.3 ± 9.4 | 48.7 ± 6.4 | 45.8 ± 5.3 | COc1ccc2[nH]cc(CCNC(C)=O)c2c1 [Melatonin, melatonin] |  |  |
| 16.5 ± 2.3 | 18.5 ± 4.2 | 16.6 ± 1.6 | 17.8 ± 1.3 | Brc1c(NC2=NCCN2)ccc2nccnc12 [UK14304, 5-bromo-N-(4,5-dihydro-1H-imidazol-2-yl)-6-quinoxalinamine] |  |  |
|  |  |  |  | Lysophosphatidic acid [LPA] | LPA/Gs+ | Gq coupling (permissive) of agonist/GiPCR (Gs and Gq proteins; FG2): LPA/Gq+; Gq coupling (permissive) of agonist/GiPCR (Gs and Gq proteins; FG3): LPA/Gq+; EC50 ([1]; read-out: Control EC50, impedance response, osteoblasts from control subjects): 8.52 ± 1.5 nM; EC50 ([1]; read-out: FG1 EC50, impedance response, osteoblasts from AIS patients of group FG1): 8.78 ± 0.6 nM; EC50 ([1]; read-out: FG2 EC50, impedance response, osteoblasts from AIS patients of group FG2): 8.54 ± 1.4 nM; EC50 ([1]; read-out: FG3 EC50, impedance response, osteoblasts from AIS patients of group FG3): 8.59 ± 1.2 nM |
|  |  |  |  | OPN: recombinant human osteopontin (R & D Systems) |  | reduction of response to Gi stimulation following rOPN treatment ([2]; patient 370): less than 50%; reduction of response to Gi stimulation following rOPN treatment ([2]; patients 345 and 382): more than 50%; OPN effect on the response to Gi stimulation ([2]; patients 353 and 371): increased the response |

| Molecule | EC50 [1, 3] [nM] | EC50 [1, 4] [nM] | EC50 [1, 5] [nM] | EC50 [1, 6] [nM] | Gs coupling (permissive) of agonist/GiPCR (Gs and Gq proteins; FG1) | further results |
| --- | --- | --- | --- | --- | --- | --- |
| O=C(NC1CCCCC1)c1cn(CCN2CCOCC2)c2cc(Cl)ccc2c1=O [CB65, N-Cyclohexyl-7-chloro-1-[2-(4-morpholinyl)ethyl]quinolin-4(1H)-one-3-carboxamide] | 13.9 ± 1.2 | 14 ± 1.2 | 13.7 ± 1.2 | 13.9 ± 1.3 | CB65/Gs+ | Gs coupling (permissive) of agonist/GiPCR (Gs and Gq proteins; FG2): CB65/Gs−; Gs coupling (permissive) of agonist/GiPCR (Gs and Gq proteins; FG3): CB65/Gs− |
| CCNC(=O)[C@H]1O[C@@H](n2cnc3c(N)ncnc32)[C@H](O)[C@@H]1O [NECA, 1-(6-Amino-9H-purin-9-yl)-1-deoxy-N-ethyl-β-D-ribofuranuronamide] | 20.9 ± 2.2 | 20.9 ± 1.7 | 20.8 ± 1.2 | 22.2 ± 2.2 |  |  |
